# Data from PubChem BioAssay (NCI).
#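 Results reflect a 48-hour exposure of cells in 96-well plates to compound at five concentrations. GI50 marks 50% less growth. TGI marks complete inhibition of growth.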
# How the values were obtained:
# Test in all cases: NCI anticancer screen, dose series, 48 h
# [1] = test system: PC-3 prostate
# [2] = test system: MDA-MB-435
# [3] = test system: MCF7 breast
# [4] = test system: SNB-19 CNS
# [5] = test system: OVCAR-5 ovarian
# [6] = test system: RXF 393 renal
# [7] = test system: OVCAR-3 ovarian
# [8] = test system: NCI-H522 lung
# [9] = test system: HS 578T breast
# [10] = test system: SF-539 CNS
# [11] = test system: SN12C renal
# [12] = test system: NCI-H226 lung
# [13] = test system: HOP-62 NSCLC
# [14] = test system: HCT-116 colon
# [15] = test system: MALME-3M melanoma
# [16] = test system: OVCAR-8 ovarian
# [17] = test system: SNB-75 CNS
# [18] = test system: BT-549 breast
# [19] = test system: LOX IMVI melanoma
# [20] = test system: UACC-257 melanoma
# [21] = test system: A498 renal
# [22] = test system: DU-145 prostate
# [23] = test system: TK-10 renal
# [24] = test system: CCRF-CEM leukemia
# [25] = test system: HOP-92 NSCLC
# [26] = test system: UACC-62 melanoma
# [27] = test system: HL-60(TB) leukemia
# [28] = test system: KM12 colon
# [29] = test system: NCI/ADR-RES ovarian
# [30] = test system: SF-268 CNS
# [31] = test system: 786-0 renal
# [32] = test system: COLO 205 colon
# [33] = test system: MOLT-4 leukemia
# [34] = test system: RPMI-8226 leukemia
# [35] = test system: M14 melanoma
# [36] = test system: SF-295 CNS
# [37] = test system: CAKI-1 renal
# [38] = test system: NCI-H23 lung
# [39] = test system: OVCAR-4 ovarian
# [40] = test system: MDA-MB-231 breast
# [41] = test system: SW-620 colon
# [42] = test system: T-47D breast
# [43] = test system: HCT-15 colon
# [44] = test system: SK-OV-3 ovarian
# [45] = test system: SK-MEL-2 melanoma
# [46] = test system: SK-MEL-5 melanoma
# [47] = test system: EKVX NSCLC
# [48] = test system: IGROV1 ovarian
# [49] = test system: A549 NSCLC
# [50] = test system: HCC-2998 colon
# [51] = test system: SK-MEL-28 melanoma
# [52] = test system: U251 CNS
# [53] = test system: NCI-H460 lung
# [54] = test system: ACHN renal
# [55] = test system: UO-31 renal
# [56] = test system: HT29 colon
structure (smiles),measurement,setting,value
COc1ccc(C(=O)COc2cccc(/C=C3\CSc4ccc(Cl)cc4C3=O)c2)cc1,GI50,[1],3.97 µM
same,TGI,[1],20.4 µM
same,GI50,[2],3.48 µM
same,TGI,[2],17 µM
same,GI50,[3],1.5 µM
same,TGI,[3],11.3 µM
same,GI50,[4],6.99 µM
same,TGI,[4],20.1 µM
same,GI50,[5],17 µM
same,TGI,[5],34.2 µM
same,GI50,[6],1.14 µM
same,TGI,[6],7.1 µM
same,GI50,[7],8.86 µM
same,TGI,[7],21.2 µM
same,GI50,[8],2.07 µM
same,TGI,[8],4.9 µM
same,GI50,[9],3.55 µM
same,TGI,[9],31.7 µM
same,GI50,[10],16.2 µM
same,TGI,[10],30.7 µM
same,GI50,[11],8.16 µM
same,TGI,[11],25.7 µM
same,GI50,[12],14.4 µM
same,TGI,[12],62.8 µM
same,GI50,[13],19.5 µM
same,TGI,[13],47.3 µM
same,GI50,[14],1.94 µM
same,TGI,[14],4.3 µM
same,GI50,[15],11.6 µM
same,TGI,[15],32 µM
same,GI50,[16],9.35 µM
same,TGI,[16],56.3 µM
same,GI50,[17],16.5 µM
same,TGI,[17],37.2 µM
same,GI50,[18],12.9 µM
same,TGI,[18],33.5 µM
same,GI50,[19],1.79 µM
same,TGI,[19],3.48 µM
same,GI50,[20],12.6 µM
same,TGI,[20],33.4 µM
same,GI50,[21],36.5 µM
same,TGI,[21],> 100 µM
same,GI50,[22],12.7 µM
same,TGI,[22],25.3 µM
same,GI50,[23],19.7 µM
same,TGI,[23],41.4 µM
same,GI50,[24],1.82 µM
same,TGI,[24],5.41 µM
same,GI50,[25],1.28 µM
same,TGI,[25],19.8 µM
same,GI50,[26],6.23 µM
same,TGI,[26],21 µM
same,GI50,[27],2.18 µM
same,TGI,[27],7.21 µM
same,GI50,[28],2.28 µM
same,TGI,[28],5.57 µM
same,GI50,[29],11.4 µM
same,TGI,[29],29.9 µM
same,GI50,[30],14.9 µM
same,TGI,[30],30.3 µM
same,GI50,[31],15.6 µM
same,TGI,[31],29.8 µM
same,GI50,[32],14.1 µM
same,TGI,[32],29 µM
same,GI50,[33],2.25 µM
same,TGI,[33],5.53 µM
same,GI50,[34],0.214 µM
same,TGI,[34],3.51 µM
same,GI50,[35],13.4 µM
same,TGI,[35],31.6 µM
same,GI50,[36],11.3 µM
same,TGI,[36],28.7 µM
same,GI50,[37],12.4 µM
same,TGI,[37],25.1 µM
same,GI50,[38],14.2 µM
same,TGI,[38],35 µM
same,GI50,[39],11.7 µM
same,TGI,[39],28.4 µM
same,GI50,[40],14.2 µM
same,TGI,[40],64.3 µM
same,GI50,[41],1.82 µM
same,TGI,[41],4.1 µM
same,GI50,[42],5.4 µM
same,TGI,[42],28.9 µM
same,GI50,[43],1.83 µM
same,TGI,[43],4.36 µM
same,GI50,[44],25.9 µM
same,TGI,[44],> 100 µM
same,GI50,[45],11.7 µM
same,TGI,[45],25.1 µM
same,GI50,[46],3.93 µM
same,TGI,[46],18.5 µM
same,GI50,[47],15.3 µM
same,TGI,[47],52 µM
same,TGI,[48],11.6 µM
same,GI50,[49],64 µM
same,TGI,[49],> 100 µM
same,GI50,[50],15.5 µM
same,TGI,[50],30 µM
same,GI50,[51],15.4 µM
same,TGI,[51],29 µM
same,GI50,[52],2.13 µM
same,TGI,[52],4.59 µM
same,GI50,[53],16.2 µM
same,TGI,[53],34.9 µM
same,GI50,[54],11.9 µM
same,TGI,[54],24.6 µM
same,GI50,[55],11.5 µM
same,TGI,[55],25.5 µM
same,GI50,[56],3.32 µM
same,TGI,[56],11.4 µM
